Source: US12498382B2, “Biomarkers for vitiligo” (INCYTE CORPORATION, priority 2019, dated 2025)

Test system: HaCaT cells
Test: Concentrations of inflammatory mediators produced by HaCaT cells stimulated with TNFα and IFNγ in presence/absence of JAK inhibitors (ProCarta)
Format: cell-based, human
Method: After 48 hours, cell culture media was removed from 24 well plates and replaced with 250 uL of media containing serial diluted drug, then incubated for 15 minutes at 37° C./5% CO2. […] The final concentration of Recombinant Human Interferon gamma and Recombinant Human Tumor Necrosis Factor alpha was 25 ng/mL of each cytokine. Cytokine stimulation added to wells containing drug brought the final concentrations for each drug treatment to 25 nM, 50 nM, 100 nM, and 200 nM. Treated plates were mixed by gentle agitation for 30 seconds then incubated for 24 hours at 37° C./5% CO2. At the end of the 24 hour incubation media was immediately removed from each plate.
Media was incubated with antibody conjugated beads designed to bind to the epitopes of specific target proteins and identify the bound protein through the bead's distinctive spectral pattern. Biotinylated detection antibodies, designed to bind to different epitopes of the same target proteins, and Streptavidin-PE are added to assay plates to quantify the amount of the target proteins. Assay plates were read on the Luminex 200 and data were expressed as Net Median Fluorescence Intensity. […] The concentration of each protein was extrapolated from the antigen standard curve and concentrations were expressed as pg/mL (Table 15).

[1] = TNFα+IFNγ 25 ng/mL each, drug conc. 1st of 4 rows (cell not shown; prob. 25 nM)
[2] = TNFα+IFNγ 25 ng/mL each, drug conc. 2nd of 4 rows (cell not shown; prob. 50 nM)
[3] = TNFα+IFNγ 25 ng/mL each, drug conc. 3rd of 4 rows (cell not shown; prob. 100 nM)
[4] = TNFα+IFNγ 25 ng/mL each, drug conc. 4th of 4 rows (cell not shown; prob. 200 nM)
[5] = drug present, concentration not given

Cc1n[nH]c(C)c1-c1cnn(C2(CC#N)CN(c3cc(F)c(C(=O)N[C@@H](C)C(F)(F)F)cc3F)C2)c1 [Cpd C, 4-[3-(Cyanomethyl)-3-(3′,5′-dimethyl-1H,1′H-4,4′-bipyrazol-1-yl)azetidin-1-yl]-2,5-difluoro-N-[(1S)-2,2,2-trifluoro-1-methylethyl]benzamide]
IFN gamma concentration [1]: 27765.18 ± 4653.71 pg/mL
IL1RA concentration [1]: 6175.66 ± 277.7 pg/mL
IL1 alpha concentration [1]: 7.74 ± 0.36 pg/mL
IL1 beta concentration [1]: 8.88 ± 0.35 pg/mL
IL2 concentration [1]: 31.39 ± 1.44 pg/mL
IL4 concentration [1]: 8.31 ± 2.19 pg/mL
IL5 concentration [1]: 27.03 ± 1.35 pg/mL
IL6 concentration [1]: 774.87 ± 31.09 pg/mL
IL7 concentration [1]: 2.18 ± 0.15 pg/mL
IL8 concentration [1]: 2879.27 ± 117.07 pg/mL
IL9 concentration [1]: 3.37 ± 0.33 pg/mL
IL10 concentration [1]: 0.75 ± 0.05 pg/mL
IL12p70 concentration [1]: 1.97 ± 0.22 pg/mL
IL13 concentration [1]: 2.93 ± 0.41 pg/mL
IL15 concentration [1]: 3.97 ± 0.71 pg/mL
IL17A concentration [1]: 4.27 ± 0.42 pg/mL
IL18 concentration [1]: 163.63 ± 3.29 pg/mL
IL21 concentration [1]: 2.71 ± 0.18 pg/mL
IL22 concentration [1]: 7.15 ± 1.16 pg/mL
IL23 concentration [1]: 7.43 ± 0 pg/mL
IL27 concentration [1]: 8.88 ± 1.64 pg/mL
IL31 concentration [1]: 3.52 ± 0.53 pg/mL
IP-10/CXCL10 concentration [1]: 3999.9 ± 370.53 pg/mL
LIF concentration [1]: 67.72 ± 2.04 pg/mL
MCP1 concentration [1]: 15200 ± 0 pg/mL
MIP1 alpha concentration [1]: 101.71 ± 3.84 pg/mL
MIP1 beta concentration [1]: 318.92 ± 6.03 pg/mL
PDGF-BB concentration [1]: 4.93 ± 0.21 pg/mL
PIGF-1 concentration [1]: 58.04 ± 2.17 pg/mL
RANTES concentration [1]: 216.88 ± 13.45 pg/mL
SCF concentration [1]: 4.34 ± 0.19 pg/mL
SDF-1 alpha concentration [1]: 3503.89 ± 90.15 pg/mL
TNF alpha concentration [1]: 11212.78 ± 1168.53 pg/mL
TNF beta concentration [1]: 5.68 ± 1.4 pg/mL
VEGF-A concentration [1]: 1261.47 ± 37.95 pg/mL
VEGF-D concentration [1]: 8.6 ± 0.74 pg/mL
IFN gamma concentration [2]: 23531.94 ± 2644.35 pg/mL
IL1RA concentration [2]: 6065 ± 325.72 pg/mL
IL1 alpha concentration [2]: 7.01 ± 0.39 pg/mL
IL1 beta concentration [2]: 8.72 ± 0.47 pg/mL
IL2 concentration [2]: 29.87 ± 1.38 pg/mL
IL4 concentration [2]: 5.24 ± 0.99 pg/mL
IL5 concentration [2]: 26.49 ± 1.58 pg/mL
IL6 concentration [2]: 710.89 ± 36.7 pg/mL
IL7 concentration [2]: 2.02 ± 0.07 pg/mL
IL8 concentration [2]: 2869.74 ± 167.65 pg/mL
IL9 concentration [2]: 3.7 ± 0^ pg/mL
IL10 concentration [2]: 0.74 ± 0.06 pg/mL
IL12p70 concentration [2]: 1.72 ± 0.2 pg/mL
IL13 concentration [2]: 2.24 ± 0.28 pg/mL
IL15 concentration [2]: 2.29 ± 0.44 pg/mL
IL17A concentration [2]: 3.48 ± 0.39 pg/mL
IL18 concentration [2]: 156.41 ± 4.19 pg/mL
IL21 concentration [2]: 2.88 ± 0 pg/mL
IL22 concentration [2]: 8.03 ± 0.87 pg/mL
IL23 concentration [2]: 7.43 ± 0 pg/mL
IL27 concentration [2]: 5.98 ± 1.08 pg/mL
IL31 concentration [2]: 3.36 ± 0.27 pg/mL
IP-10/CXCL10 concentration [2]: 3665.2 ± 277.11 pg/mL
LIF concentration [2]: 67.64 ± 3.17 pg/mL
MCP1 concentration [2]: 33175.72 ± 17975.72 pg/mL
MIP1 alpha concentration [2]: 104.54 ± 6.56 pg/mL
MIP1 beta concentration [2]: 318.37 ± 9.88 pg/mL
PDGF-BB concentration [2]: 5.22 ± 0.25 pg/mL
PIGF-1 concentration [2]: 55.59 ± 2.74 pg/mL
RANTES concentration [2]: 201.93 ± 15.44 pg/mL
SCF concentration [2]: 4.25 ± 0.22 pg/mL
SDF-1 alpha concentration [2]: 3471.01 ± 141.19 pg/mL
TNF alpha concentration [2]: 10367.04 ± 1016.28 pg/mL
TNF beta concentration [2]: 5.54 ± 0.56 pg/mL
VEGF-A concentration [2]: 1268.91 ± 59.05 pg/mL
VEGF-D concentration [2]: 8.44 ± 0.66 pg/mL
IFN gamma concentration [3]: 23113.79 ± 2086.62 pg/mL
IL1RA concentration [3]: 6167.55 ± 367.54 pg/mL
IL1 alpha concentration [3]: 7.27 ± 0.47 pg/mL
IL1 beta concentration [3]: 8.55 ± 0.34 pg/mL
IL2 concentration [3]: 30.51 ± 1.23 pg/mL
IL4 concentration [3]: 6.26 ± 1.35 pg/mL
IL5 concentration [3]: 28.64 ± 1.4 pg/mL
IL6 concentration [3]: 690.4 ± 35.25 pg/mL
IL7 concentration [3]: 2.04 ± 0.11 pg/mL
IL8 concentration [3]: 3035.52 ± 206.85 pg/mL
IL9 concentration [3]: 4.16 ± 0.46 pg/mL
IL10 concentration [3]: 0.75 ± 0.07 pg/mL
IL12p70 concentration [3]: 1.75 ± 0.23 pg/mL
IL13 concentration [3]: 2.58 ± 0.36 pg/mL
IL15 concentration [3]: 2.42 ± 0.54 pg/mL
IL17A concentration [3]: 3.77 ± 0.42 pg/mL
IL18 concentration [3]: 162.12 ± 5.14 pg/mL
IL21 concentration [3]: 2.6 ± 0.28 pg/mL
IL22 concentration [3]: 7.31 ± 1.07 pg/mL
IL23 concentration [3]: 6.7 ± 0.73 pg/mL
IL27 concentration [3]: 5.7 ± 1.04 pg/mL
IL31 concentration [3]: 2.95 ± 0.38 pg/mL
IP-10/CXCL10 concentration [3]: 3860.41 ± 323.05 pg/mL
LIF concentration [3]: 73.12 ± 3.62 pg/mL
MCP1 concentration [3]: 26334.64 ± 11134.64 pg/mL
MIP1 alpha concentration [3]: 96.4 ± 4.18 pg/mL
MIP1 beta concentration [3]: 324.42 ± 8.52 pg/mL
PDGF-BB concentration [3]: 5.57 ± 0.23 pg/mL
PIGF-1 concentration [3]: 58.69 ± 3.37 pg/mL
RANTES concentration [3]: 207.79 ± 17.38 pg/mL
SCF concentration [3]: 4.59 ± 0.25 pg/mL
SDF-1 alpha concentration [3]: 3521.98 ± 154.06 pg/mL
TNF alpha concentration [3]: 10632.61 ± 795.65 pg/mL
TNF beta concentration [3]: 4.6 ± 0.46 pg/mL
VEGF-A concentration [3]: 1335.99 ± 63.65 pg/mL
VEGF-D concentration [3]: 9.25 ± 0.7 pg/mL
IFN gamma concentration [4]: 25179.01 ± 3591.71 pg/mL
IL1RA concentration [4]: 5756.59 ± 328.24 pg/mL
IL1 alpha concentration [4]: 6.45 ± 0.38 pg/mL
IL1 beta concentration [4]: 8.71 ± 0.5 pg/mL
IL2 concentration [4]: 30.68 ± 1.62 pg/mL
IL4 concentration [4]: 7.07 ± 0.88 pg/mL
IL5 concentration [4]: 27.1 ± 1.76 pg/mL
IL7 concentration [4]: 1.91 ± 0.11 pg/mL
IL8 concentration [4]: 2874.26 ± 169.59 pg/mL
IL9 concentration [4]: 3.66 ± 0.04 pg/mL
IL10 concentration [4]: 0.84 ± 0.08 pg/mL
IL12p70 concentration [4]: 1.79 ± 0.23 pg/mL
IL13 concentration [4]: 2.12 ± 0.3 pg/mL
IL15 concentration [4]: 2.32 ± 0.44 pg/mL
IL17A concentration [4]: 4 ± 0.34 pg/mL
IL18 concentration [4]: 157.36 ± 4.56 pg/mL
IL21 concentration [4]: 2.45 ± 0.29 pg/mL
IL22 concentration [4]: 8.24 ± 0.53 pg/mL
IL23 concentration [4]: 6.95 ± 0.48 pg/mL
IL27 concentration [4]: 6.59 ± 0.99 pg/mL
IL31 concentration [4]: 3.34 ± 0.69 pg/mL
IP-10/CXCL10 concentration [4]: 3835.78 ± 304.58 pg/mL
LIF concentration [4]: 70.66 ± 3.22 pg/mL
MCP1 concentration [4]: 19811.45 ± 4611.45 pg/mL
MIP1 alpha concentration [4]: 98.72 ± 3.87 pg/mL
MIP1 beta concentration [4]: 318.74 ± 8.72 pg/mL
PDGF-BB concentration [4]: 5.52 ± 0.27 pg/mL
PIGF-1 concentration [4]: 55.71 ± 3.28 pg/mL
RANTES concentration [4]: 189.62 ± 13.78 pg/mL
SCF concentration [4]: 4.23 ± 0.15 pg/mL
SDF-1 alpha concentration [4]: 3436.48 ± 134.91 pg/mL
TNF alpha concentration [4]: 10619.05 ± 1276.72 pg/mL
TNF beta concentration [4]: 3.78 ± 0.57 pg/mL
VEGF-A concentration [4]: 1262.36 ± 57.42 pg/mL
VEGF-D concentration [4]: 8.82 ± 0.7 pg/mL
IL1RA concentration [5]: 488.84 ± 49.85 pg/mL
IL1 alpha concentration [5]: 0.3 ± 0.05 pg/mL
IL1 beta concentration [5]: 0.93 ± 0.17 pg/mL
IL2 concentration [5]: 2.65 ± 0.28 pg/mL
IL4 concentration [5]: 4.89 ± 1.18 pg/mL
IL5 concentration [5]: 3.04 ± 0.41 pg/mL
IL6 concentration [5]: 28.49 ± 2.89 pg/mL
IL7 concentration [5]: 3.35 ± 0.18 pg/mL
IL8 concentration [5]: 269.53 ± 10.35 pg/mL
IL9 concentration [5]: 3.65 ± 0.2 pg/mL
IL10 concentration [5]: 0.4 ± 0.11 pg/mL
IL12p70 concentration [5]: 1.52 ± 0.29 pg/mL
IL13 concentration [5]: 1.08 ± 0.13 pg/mL
IL15 concentration [5]: 1.98 ± 0.49 pg/mL
IL17A concentration [5]: 1.39 ± 0.22 pg/mL
IL18 concentration [5]: 5.89 ± 0.58 pg/mL
IL21 concentration [5]: 2.33 ± 0.29 pg/mL
IL22 concentration [5]: 7.16 ± 1.16 pg/mL
IL23 concentration [5]: 6.54 ± 1 pg/mL
IL27 concentration [5]: 9.17 ± 2.36 pg/mL
IL31 concentration [5]: 3.28 ± 0.31 pg/mL
IP-10/CXCL10 concentration [5]: 19.83 ± 0.4 pg/mL
LIF concentration [5]: 24.24 ± 1.14 pg/mL
MCP1 concentration [5]: 1158.23 ± 47.13 pg/mL
MIP1 alpha concentration [5]: 2.9 ± 0.21 pg/mL
MIP1 beta concentration [5]: 117.97 ± 3.75 pg/mL
PDGF-BB concentration [5]: 2.19 ± 0.17 pg/mL
PIGF-1 concentration [5]: 21.19 ± 1.05 pg/mL
RANTES concentration [5]: 8.61 ± 0.52 pg/mL
SCF concentration [5]: 2 ± 0.1 pg/mL
SDF-1 alpha concentration [5]: 1028.82 ± 43.21 pg/mL
TNF alpha concentration [5]: 2.82 ± 0.72 pg/mL
TNF beta concentration [5]: 4.5 ± 0.5 pg/mL
VEGF-A concentration [5]: 609.51 ± 15.83 pg/mL
VEGF-D concentration [5]: 3.63 ± 0.6 pg/mL
